Results from publication PMC10016038, “Enhanced Endosomal Signaling and Desensitization of GLP-1R vs GIPR in Pancreatic Beta Cells” (Endocrinology, 2023).

Legend:
SNAP-tagged human GIPR [1] = experiment: TR-FRET receptor clustering, SNAP-GIPR; assay type: cell-based; conditions: 100 nM, 37 °C, n = 4
Description: The time-resolved fluorescence resonance energy transfer (TR-FRET) assay was performed as previously described ([24]). INS-1 832/3 SNAP-GLP-1R or SNAP-GIPR cells were labeled in suspension with 40 nM SNAP-Lumi4-Tb and 1 mM SNAP-Surface 649 (New England Biolabs, Hitchin, UK) for 1 hour at room temperature in complete medium. […] TR-FRET was quantified as the ratio of fluorescent signal at 665 nm to that at 616 nm, after subtraction of background signal at each wavelength.
Figure 3. GLP-1R vs GIPR clustering propensities in beta cells. […] Diffusion coefficients for individual ROIs are indicated on each image, with corresponding intensity traces, as well as 2D and fitted 3D autocorrelation maps for each ROI, are also depicted. (B) Average RICS diffusion coefficients for each receptor and treatment for each cell analyzed from n = 4 experiments. (C) GLP-1R clustering kinetics measured by TR-FRET in INS-1 832/3 SNAP-GLP-1R cells treated with 100 nM agonist as indicated, with vehicle-corrected AUCs included; n = 4. (D) GIPR clustering kinetics measured by TR-FRET in INS-1 832/3 SNAP-GIPR cells treated with 100 nM agonist as indicated, with vehicle-corrected AUCs included; n = 4. Data are mean ± SEM, compared by one-way ANOVA with Sidak's test; ****P < .0001; ns: non-significant. […] Best readings: GLP-1R Veh i 2.03, ii 1.56, iii 1.44 μm^2/s; GIPR Veh i 0.80, ii 0.34, iii 0.44 μm^2/s. […]

SNAP-tagged human GIPR [2] = experiment: High-content microscopy recycling, SNAP-GIPR; assay type: cell-based; conditions: 100 nM, 60 min recycling, 37 °C, n = 5
Description: The assay was performed as previously described ([21]). The INS-1 832/3 SNAP-GLP-1R or SNAP-GIPR cells were seeded into poly-D-lysine-coated, black 96-well plates. On the day of the assay, labeling was performed with BG-S-S-649 (1 µM), a surface-labeling SNAP-tag probe that can be released on application of reducing agents such as Mesna. After washing, treatments were applied for 30 minutes at 37 °C in complete medium. Ligand was removed and cells washed with cold HBSS and placed on ice for subsequent steps. Mesna (100 mM in alkaline TNE buffer, pH 8.6) or alkaline TNE buffer without Mesna was applied for 5 minutes, and then washed with HBSS. Cells were imaged by widefield microscopy, with both epifluorescence and transmitted phase contrast images acquired. On imaging completion, HBSS was removed and replaced with fresh complete medium, and receptor was allowed to recycle for 60 minutes at 37 °C, followed by a second Mesna application to remove any receptor that had recycled to the plasma membrane, with the plate re-imaged as above. Internalized receptor at each time point was determined from cell-containing regions as determined from the phase contrast image using […] ([22]) and used to determine internalization and recycling parameters as previously described ([21]). […]

SNAP-tagged human GIPR [3] = experiment: Colocalization with Rab5-Venus, SNAP-GIPR; assay type: cell-based; conditions: 100 nM GIP
From the text: To determine the intracellular destination of internalized GLP-1Rs/GIPRs more precisely, we performed concentration response bystander NanoBRET assays using C-terminal NanoLuc-fused SNAP-tagged GLP-1R vs GIPR and either KRAS-Venus (plasma membrane) or Rab5-Venus (early endosome) co-expressed transiently in INS-1 832/3 cells (Fig. 2).

[4] = test system: INS-1 832/3 GIPR KO cells; experiment: Insulin secretion assay, GIPR KO cells; assay type: cell-based, rat; conditions: 100 nM, 11 mM glucose; n = 4
Description: At the end of the treatments, the supernatant containing the secreted insulin was collected, centrifuged at 1000g for 3 minutes, and transferred to a fresh tube. To determine total insulin content, cells were lysed using KRBH buffer + 1% w/v BSA + 1% v/v Triton X-100 (Sigma). The lysates were sonicated 3 × 10 seconds in a water bath sonicator and centrifuged at 10 000g for 10 minutes, and the supernatants collected. The samples were stored at −20 °C until the insulin concentration was determined using an Insulin Ultra-Sensitive HTRF Assay kit (62IN2PEG, Cisbio, Codolet, France) according to the manufacturer's instructions.
(§1) Figure 7. Functional analysis of GLP-1R vs GIPR signaling in beta cells. […] Data are mean ± SEM, compared by paired t tests; *P < .05; ns, nonsignificant.

[5] = test system: calcium response in INS-1 832/3 cells; experiment: Calcium assay, INS-1 832/3 cells; assay type: cell-based, rat; conditions: for Calcium response, net difference between both receptors: INS-1 832/3
Description: Imaging of INS-1 832/3 cells or whole-islet Ca^2+ dynamics was performed as follows: cells or Matrigel-encased islets from individual animals were loaded with the Ca^2+ responsive dye Cal-520 AM (AAT Bioquest), pre-incubated for 1 hour in KRBH G6, and imaged in MatTek glass bottom dishes every 6 second at 488 nm using a Nikon Eclipse Ti microscope with an ORCA-Flash 4.0 camera (Hamamatsu) and Metamorph software (Molecular Devices) while maintained at 37 °C on a heated stage. Raw fluorescence intensity traces from cell-occupied areas or islet ROIs were extracted using Fiji. Responses were plotted relative to the average fluorescence intensity during the 6 mM glucose baseline period, before agonist addition.
as §1

SNAP-tagged human GLP-1R = SNAP-tagged human GLP-1R (Homo sapiens, UniProt P43220); experiment: DERET internalization assay, INS-1 832/3 SNAP-GLP-1R cells; assay type: cell-based; conditions: non-cognate agonist GIP
Sequence of SNAP-tagged human GLP-1R (P43220 24-463): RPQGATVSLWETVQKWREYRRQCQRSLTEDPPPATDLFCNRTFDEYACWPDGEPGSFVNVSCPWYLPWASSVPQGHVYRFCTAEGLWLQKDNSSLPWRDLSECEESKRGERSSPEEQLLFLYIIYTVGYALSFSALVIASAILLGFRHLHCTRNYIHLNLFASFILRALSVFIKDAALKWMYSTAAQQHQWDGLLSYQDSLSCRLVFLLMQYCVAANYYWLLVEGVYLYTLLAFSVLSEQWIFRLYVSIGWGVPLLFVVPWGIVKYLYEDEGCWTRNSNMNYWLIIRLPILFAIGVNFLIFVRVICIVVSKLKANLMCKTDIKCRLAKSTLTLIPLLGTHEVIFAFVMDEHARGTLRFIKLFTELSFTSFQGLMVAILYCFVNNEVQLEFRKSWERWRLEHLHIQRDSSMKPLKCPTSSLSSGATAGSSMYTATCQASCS

| Substance | GIPR clustering (SNAP-tagged human GIPR [1]) | Recycling rate of GIPR compared with GLP-1R (SNAP-tagged human GIPR [2]) | Localization of the fraction of internalized GIPRs (SNAP-tagged human GIPR [3]) | SNAP-GIPR localization (SNAP-tagged human GIPR [3]) | Insulin secretion response in GIPR KO cells [4] | Calcium response, net difference between both receptors ([5]; Cal-520 AM, 100 nM, n = 4) | Calcium response, GIPR compared with GLP-1R, 0-1 minute ([5]; Cal-520 AM, 100 nM, first minute, n = 4) | Calcium response, GIPR compared with GLP-1R, 1-5 minutes ([5]; Cal-520 AM, 100 nM, following 4 minutes, n = 4) | Calcium response tendency, GIP vs GLP-1, INS-1 832/3 ([5]; summary in discussion) | GLP-1R internalization (SNAP-tagged human GLP-1R) |
| --- | --- | --- | --- | --- | --- | --- | --- | --- | --- | --- |
| GIP(1-42) | could not be detected | significantly increased recycling rates | also localized to Rab5-Venus-positive endosomes | a sizable amount of SNAP-GIPR was still present at the plasma membrane | abolished | zero net difference | initial trend for a decreased GIPR compared with GLP-1R response | this tendency was reversed | tendency toward increased | negligible |
| GLP-1(7-36)NH2 | not detectable | – | – | – | – | zero net difference | – | – | – | – |
